# Source: patent publication US20210002282A1 (DR. REDDY'S LABORATORIES LIMITED, priority 2018, published 2021)
# Read-outs that look alike come from different tables or passages of the source.
# What was measured:
# [1] = Hygroscopicity of solid forms (statement only); type: physicochemical
# [2] = 25° C. ± 2° C. 60% RH ± 5RH, 1 Month
# [3] = 25° C. ± 2° C. 60% RH ± 5RH, 3 Months
# [4] = 25° C. ± 2° C. 60% RH ± 5RH, Initial
# [5] = 40° C. ± 2° C. 75% RH ± 5RH, 1 Month
# [6] = 40° C. ± 2° C. 75% RH ± 5RH, 3 Months
# [7] = 40° C. ± 2° C. 75% RH ± 5RH, Initial
% Total Impurities [2] [%],% Water content [2] [%],Description [2],% Total Impurities [3] [%],% Water content [3] [%],Description [3],% Total Impurities [4] [%],% Water content [4] [%],Description [4],PXRD [4],% Total Impurities [5] [%],% Water content [5] [%],Description [5],% Total Impurities [6] [%],% Water content [6] [%],Description [6],% Total Impurities [7] [%],% Water content [7] [%],Description [7],PXRD [7],Structure (SMILES),further results
0.46,0.10,White,0.39,0.19,White,0.38,0.13,White,Crystalline,0.45,0.16,White,0.45,0.29,White,0.38,0.13,White,Crystalline,"C=CC(=O)N1CCC[C@@H](n2nc(-c3ccc(Oc4ccccc4)cc3)c3c(N)ncnc32)C1 [Form D18, Ibrutinib]",Octanoic acid content (%) [2]: 24.70%; Octanoic acid content (%) [3]: 25.57%; Octanoic acid content (%) [4]: 25.24%; Octanoic acid content (%) [5]: 24.70%; Octanoic acid content (%) [6]: 24.99%; Octanoic acid content (%) [7]: 25.24%; hygroscopicity [1]: non-hygroscopic
0.42,0.20,Off-White,0.42,0.09,Off-White,0.41,0.19,Off-White,Crystalline,0.49,0.13,Off-White,0.50,0.11,Off-White,0.41,0.19,Off-White,Crystalline,"C=CC(=O)N1CCC[C@@H](n2nc(-c3ccc(Oc4ccccc4)cc3)c3c(N)ncnc32)C1 [Form D19, Ibrutinib]",Hexanoic acid content (%) [2]: 21.73%; Hexanoic acid content (%) [3]: 21.24%; Hexanoic acid content (%) [4]: 23.13%; Hexanoic acid content (%) [5]: 21.48%; Hexanoic acid content (%) [6]: 20.79%; Hexanoic acid content (%) [7]: 23.13%; hygroscopicity [1]: non-hygroscopic
